Read-outs that look alike come from different tables or passages of the source.
Legend:
[1] = tested on: PC/SM/PE/PS/Chol (4.35:4.35:1:0.3:1 w/w) LUVs; assay: Single-molecule force spectroscopy (AFM); type: binding; settings: RMS ± SD; N-terminal Cys peptide on AFM tip via PEG linker; cancer cell model membrane
From the text: (§1) Based on the above results, five selected peptides of V13L, A12L/A20L, V13K, V13E, and L6A/L17A, with different hydrophobicity and charges were used to examine the interaction probabilities and forces between peptides and membranes, both on the lipid model membranes and on the biological membranes by SMFS based on AFM, respectively. A cysteine residue was covalently introduced to the N-terminus of peptides and provided a free sulfhydryl group to modify the tips of the AFM. A PEG linker was used since each heterobifunctional PEG–NHS linker (approximately 20 nm) can only covalently connect with a single peptide molecule, which guarantees a single-molecule interaction between MAPs and biological membranes in real time[19]. If an AFM tip was functionalized with two or more peptides, where several peaks were recorded. In the reports, data with two peaks were not collected and calculated. For one force–distance cycle, one peptide-functionalized AFM tip approached the model and biological membranes right on the top, and the subsequent tip was withdrawn from the cell membranes to retrace the process. […] In addition, blocking experiment was used to test the specificity of these force events. As the electrostatic attraction is one important reason for peptides approaching model membranes and biological membranes, the Tris-HCl buffer including plenty amino groups[20] was injected into the working chamber and inhibits the interactions between MAPs and model membranes/biological membranes. […] The unbinding forces of V13L against different model membranes and biological membranes with the loading rate of 1 × 10^5 pN s^−1 are shown in Fig. 3c,f–h,j–l.
(§2) In accordance with previously described methods, LUVs were prepared with PC/PG (7:3 w/w), PC/Chol (8:1 w/w), and PC/SM/PE/PS/Chol (4.35:4.35:1:0.3:1 w/w) to mimic prokaryotic cell, […], membranes, respectively. Lipids using the freeze-thaw method as described previously, followed by extrusion through […] double-stacked nuclepore filters using an Mini-Extruder (Avanti Polar Lipids, Inc.)[11][27].
(§3) The AFM tip was first washed with concentrated sulfuric acid and hydrogen peroxide (3:1, v:v). The tip was dried using ozone (O3) for 15 min and dried overnight in a dryer. The tip was then modified with APTES under an argon atmosphere and the peptide connected with a PEG–NHS linker. Finally, the AFM tip linked with the peptide was washed three times in PBS and kept at 4 °C. A 500-μL LUV suspension was deposited on Lys coated glass and the LUVs were absorbed on the surface for 1 h at 65 °C [9][29]. A. laidlawii was deposited on poly-L-lysine coated glass and absorbed for 1 h at 37 °C [30]. The 3T3-L1 and HeLa cells were cultured on glass slides in Dulbecco’s modified Eagle’s medium (DMEM). Before performing force spectroscopy experiments, the cells were washed with fresh DMEM three times to remove the cell metabolites. Isolation of chicken erythrocytes was carried out at room temperature. Then the erythrocytes were washed three times in 2 mL PBS buffer by centrifuge (1,000 rpm) and resuspended in PBS buffer. 200 μL erythrocyte suspension were deposited onto poly-L-lysine coated glass for 20 min[10]. The force measurements of MAPs with LUVs mimicking membranes and living cells were performed using the AFM5500 (Agilent Technologies, Chandler, AZ, USA)[19].

[2] = tested on: PC/PG (7:3 w/w) LUVs; assay: Single-molecule force spectroscopy (AFM); type: binding; settings: RMS ± SD; N-terminal Cys peptide on AFM tip via PEG linker; prokaryotic model membrane
From the text: as §1, §2, §3

[3] = tested on: 3T3-L1 cells; type: cell-based, mouse; settings: 24 h
Method: (§4) The MTT cell proliferation assay was used to investigate the anticancer activity and cytotoxicity of MAPs against cancer cell lines (HeLa, A549, SGC-7901, and B16) and normal cells (3T3-L1), respectively. Cells (5 × 10^3) were seeded in 96-well plates and incubated overnight. The peptide samples were then added to cells with final concentrations ranging from 1 μM to 125 μM. After 24 h, 20 μL of 5 mg/mL MTT solution in PBS was added to the cells and treated for 4 h at 37 °C. The formazan crystals were dissolved by 150 μL of dimethyl sulfoxide (DMSO). Finally, the absorbance was determined at 492 nm. The results were expressed as IC50, representing the concentration at which cell viability was reduced by 50%. All assays were repeated in triplicate.

[4] = tested on: B16 cells; type: cell-based, mouse; settings: 24 h
Method: as §4

[5] = tested on: 3T3-L1 cells; assay: Single-molecule force spectroscopy (AFM); type: binding, mouse; settings: RMS ± SD; N-terminal Cys peptide on AFM tip via PEG linker
From the text: as §1
as §3, with “The force measurements of MAPs with LUVs mimicking membranes and living cells were performed using the AFM5500 (Agilent Technologies, Chandler, AZ, USA)[19].” left out

[6] = RP-HPLC retention time (peptide hydrophobicity); type: physicochemical; settings: used as measure of peptide hydrophobicity
Method: All peptides were synthesized by solid-phase peptide synthesis using Fmoc (9-fluorenyl-methoxycar-bonyl) chemistry and rink amide 4-methylbenzhydrylamine resin (MBHA resin; 0.8 mmol/g), as described previously. The crude peptides were purified on a LC-6A preparative reversed-phase high performance liquid chromatography (RP-HPLC, Shimadzu, Kyoto, Japan) using a Zorbax 300 SB-C8 column (250 × 9.4 mm inner diameter, […] particle size, 300 Å pore size), as described previously. The purity of the peptides was characterized by analytical RP-HPLC, mass spectrometry, and amino acid analysis.

[7] = Circular dichroism (CD) analysis; type: physicochemical; settings: for α-Helix (%) 50% TFE / α-Helix (%) Benign: relative to molar ellipticity of A12L/A20L in 50% TFE; for [θ]222 Benign / [θ]222 50% TFE: CD, 25 °C; for [θ]222 Benign: benign buffer pH 7.0, 100 mM KCl, 50 mM KH2PO4/K2HPO4; for [θ]222 50% TFE: benign buffer:TFE 1:1 vol/vol; for α-Helix (%) Benign: benign buffer
Method: The secondary structures of the peptides were determined using a Jasco J-810 CD spectrometer (Jasco, Easton, MD) at 25 °C [12]. The benign buffer (pH 7.0, 100 mM KCl, 50 mM KH2PO4/K2HPO4) was used to simulate the hydrophilic environment and 50% 2,2,2-trifluoroethanol (TFE) (benign buffer: TFE = 1: 1, vol/vol) was used to simulate the hydrophobic environment. The mean residue molar ellipticities at 222 nm, [θ]222 (degree·cm^2·dmol^−1), were used to calculate the relative helical contents of MAPs[24].
CD spectroscopy illustrated the secondary structure of peptide analogs under benign environment and 50% TFE to mimic the hydrophobic conditions of cell membranes. CD results are shown in Supplementary Table S2 and Fig. S1. […] The helical content (%) of peptides in two groups relative to the molar ellipticity value of the peptide A12L/A20L in 50% TFE. In addition, except the peptide of V13E, the relative helicity of the peptides are in the same order of V13L>V13A>V13S>V13K and A12L/A20L>A20L>L6A>L6A/L17A in the benign and hydrophobic environments and also in the same order with the peptide hydrophobicity.

[8] = normal cells, MTT, 1-125 μM, triplicate, read-out: IC50 3T3-L1
[9] = MTT, 1-125 μM, triplicate, read-out: IC50 B16

## Ac-KWKSFAKTFKSAKKTVAHTALKAISS-NH2 [L6A/L17A]
[1]
  Unbinding force PC/SM/PE/PS/Chol: 130 ± 36 pN
[2]
  Unbinding force PC/PG: 132 ± 41 pN
[3]; [8]
  IC50: > 125 µM
[4]; [9]
  IC50: > 125 µM
[5]
  Unbinding force 3T3-L1: 39 ± 12 pN
[6]
  tR (RP-HPLC retention time): 32.210 min
[7]
  α-Helix (%) 50% TFE: 65.58%
  [θ]222 Benign: −3589.82 degree·cm^2·dmol^−1
  [θ]222 50% TFE: −28421.80 degree·cm^2·dmol^−1
  α-Helix (%) Benign: 8.28%

## Ac-KWKSFLKTFKSALKTVLHTALKAISS-NH2 [Peptide V13L]
[1]
  Unbinding force PC/SM/PE/PS/Chol: 124 ± 40 pN
[2]
  Unbinding force PC/PG: 127 ± 34 pN
[3]
  IC50: 6.55 µM
[4]
  IC50: 3.51 µM
[5]
  Unbinding force 3T3-L1: 30 ± 11 pN
[6]
  tR (RP-HPLC retention time): 53.177 min
[7]
  α-Helix (%) 50% TFE: 90.73%
  [θ]222 Benign: −10502.62 degree·cm^2·dmol^−1
  [θ]222 50% TFE: −39315.30 degree·cm^2·dmol^−1
  α-Helix (%) Benign: 24.24%

## Ac-KWKSFLKTFKSAEKTVLHTALKAISS-NH2 [Peptide V13E]
[1]
  Unbinding force PC/SM/PE/PS/Chol: 92 ± 34 pN
[2]
  Unbinding force PC/PG: 111 ± 37 pN
[3]
  IC50: > 125 µM
[4]
  IC50: 120 µM
[5]
  Unbinding force 3T3-L1: 51 ± 11 pN
[6]
  tR (RP-HPLC retention time): 44.290 min
[7]
  α-Helix (%) 50% TFE: 43.13%
  [θ]222 Benign: −3876.86 degree·cm^2·dmol^−1
  [θ]222 50% TFE: −18689.59 degree·cm^2·dmol^−1
  α-Helix (%) Benign: 8.95%

## CC[C@H](C)[C@H](NC(=O)[C@H](C)NC(=O)[C@H](CCCCN)NC(=O)[C@H](CC(C)C)NC(=O)[C@H](C)NC(=O)[C@@H](NC(=O)[C@H](Cc1cnc[nH]1)NC(=O)[C@H](CC(C)C)NC(=O)[C@@H](NC(=O)[C@@H](NC(=O)[C@H](CCCCN)NC(=O)[C@H](CCCCN)NC(=O)[C@H](C)NC(=O)[C@H](CO)NC(=O)[C@H](CCCCN)NC(=O)[C@H](Cc1ccccc1)NC(=O)[C@@H](NC(=O)[C@H](CCCCN)NC(=O)[C@H](CC(C)C)NC(=O)[C@H](Cc1ccccc1)NC(=O)[C@H](CO)NC(=O)[C@H](CCCCN)NC(=O)[C@H](Cc1c[nH]c2ccccc12)NC(=O)[C@H](CCCCN)NC(C)=O)[C@@H](C)O)[C@@H](C)O)C(C)C)[C@@H](C)O)C(=O)N[C@@H](CO)C(=O)N[C@@H](CO)C(N)=O [Peptide V13K]
[1]
  Unbinding force PC/SM/PE/PS/Chol: 128 ± 51 pN
[2]
  Unbinding force PC/PG: 135 ± 36 pN
[3]; [8]
  IC50: 26.2 µM
[4]; [9]
  IC50: 11.9 µM
[5]
  Unbinding force 3T3-L1: 51 ± 15 pN
[6]
  tR (RP-HPLC retention time): 38.790 min
[7]
  α-Helix (%) 50% TFE: 69.85%
  [θ]222 Benign: −4236.54 degree·cm^2·dmol^−1
  [θ]222 50% TFE: −30268.40 degree·cm^2·dmol^−1
  α-Helix (%) Benign: 9.77%
